{
  "source": "patent US6893830B1",
  "about": "“Method of screening oxysterol activation of LXRα” (The Board of Regents of the University of Texas System, priority 1996, dated 2005)",
  "key": {"[1]": {"tested_on": "other known nuclear receptors (RXRα, RARα, TRβ, VDR, PPARα, FXR, ER, GR, usp/EcR)", "assay": "Receptor-specific transactivation: cotransfection of other nuclear receptors with their cognate response element reporters in CV-1 cells", "format": "cell-based, human", "settings": "6 μM 22(R)-hydroxycholesterol", "procedure": "(§1) TK-DR-4-LUC; human vitamin D receptor (VDR)^24, TK-DR^3-LUC; human peroxisome proliferator-activated receptor-α (PPARα)^25, TK-PPREx3-LUC; human farnesol activated receptor (FXR)^11, ΔMTV-EcREx5-LUC; human estrogen receptor (ER)^26, ΔMTV-ERE-LUC; human glucocorticoid receptor (GR)^27, MTV-LUC; Drosophila ecdysone receptor (usp/EcR)^15, ΔMTV-EcREx5-LUC. Cells were treated with ETOH or 6 μM 22(R)-hydroxycholesterol. […] FIG. 3(A)-3(D) Activation of LXRα by 22(R)-hydroxycholesterol in Drosophila (SL-2) cells. […] CV-1 cells were cotransfected with TK-LXREx3-LUC reporter plasmid and expression plasmids containing the indicated receptor combinations, and then treated with the indicated ligands. […] CV-1 cells cotransfected with the LXRα expression plasmid and TK-LXREx3-LUC reporter were treated with 9-cis RA, 22(R)-hydroxycholesterol, or both, at the indicated concentrations.\n(§2) In FIG. 3B. Drosophila SL-2 cells were transfected and assayed as previously described^5 in 6-well plates with […] A5C-hLXRα or A5C-hLXRα, 0.5 mg ADH-LXREx2-LUC, 0.2 mg A5C-βGAL and […] PGEM4 carrier DNA per well."}, "[2]": {"target": "T1, TR-LXR chimera (TRβ N-terminus and DNA binding domain fused to ligand binding domain of LXRα) (Homo sapiens, UniProt Q13133)", "T1 construct": "expressed in transfected cells; host or cells: CV-1 monkey kidney cells", "T1 sequence (Q13133 164-447)": "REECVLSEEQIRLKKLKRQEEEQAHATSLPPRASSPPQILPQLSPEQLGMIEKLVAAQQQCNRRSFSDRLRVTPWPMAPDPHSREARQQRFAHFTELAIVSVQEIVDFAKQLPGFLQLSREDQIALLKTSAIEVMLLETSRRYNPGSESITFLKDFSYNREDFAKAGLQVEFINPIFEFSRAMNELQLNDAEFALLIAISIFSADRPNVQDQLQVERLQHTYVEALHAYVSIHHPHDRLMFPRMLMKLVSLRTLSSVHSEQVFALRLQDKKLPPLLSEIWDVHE", "assay": "Chimeric receptor transactivation in CV-1 cells, TR-LXR chimera", "format": "cell-based", "settings": "TK-LXREx3-LUC", "method": "Cells were treated with ETOH or 6 μM 22(R)-hydroxycholesterol. […] CV-1 cells were cotransfected with TK-LXREx3-LUC reporter plasmid and expression plasmids containing the indicated receptor combinations, and then treated with the indicated ligands. […] CV-1 cells cotransfected with the LXRα expression plasmid and TK-LXREx3-LUC reporter were treated with 9-cis RA, 22(R)-hydroxycholesterol, or both, at the indicated concentrations."}, "RXR/LXR heterodimer": {"tested_on": "RXR/LXR heterodimer", "assay": "RXR/LXR heterodimer activation, dose response in CV-1 cells with TK-LXREx3-LUC", "format": "cell-based, human", "settings": "LXRα expression plasmid, dose-dependent", "procedure": "as §1, §2\nA subset of receptors that function as RXR heterodimers have the unique ability to be activated by their own ligand, the RXR ligand (i.e., 9-cis retinoic acid), or both ligands together^11,17. […]"}, "LXRα protein": {"target": "T2, LXRα protein (Homo sapiens, UniProt Q13133)", "T2 construct": "made in house; host or cells: in vitro synthesis (cell-free translation)", "T2 sequence (Q13133 1-447)": "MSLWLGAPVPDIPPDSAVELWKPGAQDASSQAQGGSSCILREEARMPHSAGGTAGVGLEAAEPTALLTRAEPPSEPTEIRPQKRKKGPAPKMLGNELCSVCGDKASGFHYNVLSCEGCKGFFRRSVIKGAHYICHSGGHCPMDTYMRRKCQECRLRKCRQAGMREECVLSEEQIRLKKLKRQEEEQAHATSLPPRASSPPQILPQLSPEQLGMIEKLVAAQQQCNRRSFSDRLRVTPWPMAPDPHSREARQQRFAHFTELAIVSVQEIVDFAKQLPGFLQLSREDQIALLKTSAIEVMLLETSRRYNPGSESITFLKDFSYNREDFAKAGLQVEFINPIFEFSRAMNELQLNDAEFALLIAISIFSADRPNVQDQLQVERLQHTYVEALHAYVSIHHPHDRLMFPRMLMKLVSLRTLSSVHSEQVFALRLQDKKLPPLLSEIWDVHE", "assay": "Limited protease protection assay (chymotrypsin) of [35S]-labelled Flag-LXRα", "format": "binding", "settings": "increasing concentrations of chymotrypsin, SDS-PAGE and autoradiography", "procedure": "FIG. 4, Protease protection of LXRα with 22(R)-hydroxycholesterol. [^35S]-labelled LXRα protein was incubated with (A) ethanol (ETOH) control or (B) 22(R)-hydroxycholesterol, subjected to protease digestion with increasing amounts of chymotrypsin, and analyzed by SDS-PAGE and autoradiography.\nIn vitro synthesized [^35S]-labelled Flag-LXRα protein was subjected to protease digestion with α-chymotrysin. For these studies, LXRα with a Flag epitope fused to the amino terminus was used.\nThe unavailability of radiolabelled LXRα activators prevents direct ligand binding analysis. To address the possibility that 22(R)-hydroxycholesterol interacts with LXRα, a limited protease protection assay was performed (FIG. 4). In this experiment, several proteolytic fragments were generated when LXRα protein was incubated with increasing concentrations of the protease, chymotrypsin. […] The presence of a specific ligand-protected ˜30 kDa fragment has also been observed during similar analyses with other nuclear receptors. Thus, these protease protection studies support the finding that 22(R)-hydroxycholesterol interacts with LXRα."}, "LXRα": {"target": "T3, LXRα (Homo sapiens, UniProt Q13133)", "T3 sequence (Q13133 1-447)": "T2 sequence (Q13133 1-447)", "T3 sequence (P19793 1-462 partner)": "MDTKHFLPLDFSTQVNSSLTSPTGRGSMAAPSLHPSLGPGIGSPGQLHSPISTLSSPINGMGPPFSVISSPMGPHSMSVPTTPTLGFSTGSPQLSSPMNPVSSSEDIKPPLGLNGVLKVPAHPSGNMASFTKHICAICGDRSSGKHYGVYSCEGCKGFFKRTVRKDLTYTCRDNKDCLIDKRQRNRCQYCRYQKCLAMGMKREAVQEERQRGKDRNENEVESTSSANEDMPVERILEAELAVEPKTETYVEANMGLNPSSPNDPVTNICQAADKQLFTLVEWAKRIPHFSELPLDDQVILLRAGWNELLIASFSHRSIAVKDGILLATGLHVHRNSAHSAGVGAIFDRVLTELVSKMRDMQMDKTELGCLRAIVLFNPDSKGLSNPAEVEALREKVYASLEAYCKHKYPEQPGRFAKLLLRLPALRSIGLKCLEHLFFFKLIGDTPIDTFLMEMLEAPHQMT", "assay": "Activation of LXRα in Drosophila SL-2 cells (LXR responsive reporter)", "format": "cell-based", "parameters": "expressed in transfected cells; host or cells: Drosophila SL-2 cells", "settings": "10 μM", "procedure": "as §1, §2\nThe insect cell line, SL-2, which lacks mammalian nuclear receptors and is deficient in the metabolic pathways for cholesterol and bile acid synthesis^14, was used as a transfection host in these experiments. […]"}},
  "data": [
    {"smiles": "CC(C)CC[C@@H](O)[C@@H](C)[C@H]1CC[C@H]2[C@@H]3CC=C4C[C@@H](O)CC[C@]4(C)[C@H]3CC[C@]12C", "note": "[22(R)-hydroxycholesterol]", "values": [
      {"measurement": "cross-reactivity with other known nuclear receptors (transactivation)", "setting": "[1]", "value": "no cross-reactivity"},
      {"measurement": "responsiveness of TR-LXR chimera", "setting": "[2]", "value": "responded"},
      {"measurement": "maximal induction", "setting": "RXR/LXR heterodimer", "value": 20, "unit": "fold"},
      {"measurement": "ligand-protected 30 kDa chymotrypsin fragment of LXRα", "setting": "LXRα protein", "value": "consistently observed"},
      {"measurement": "induction, LXRα alone transfected", "setting": "LXRα; LXRα alone", "value": 6, "unit": "fold"},
      {"measurement": "induction, RXRα cotransfected with LXRα", "setting": "LXRα; RXRα plus LXRα", "value": 26, "unit": "fold"}
    ]}
  ]
}
